{"source": "PubChem BioAssay (NCI)", "assay_in_all_cases": "NCI anticancer screen, dose series, 48 h", "key": {"MOLT-4 leukemia": {"tested_on": "MOLT-4 leukemia"}, "NCI-H226 lung": {"tested_on": "NCI-H226 lung"}, "NCI-H23 lung": {"tested_on": "NCI-H23 lung"}, "NCI-H522 lung": {"tested_on": "NCI-H522 lung"}, "NCI/ADR-RES ovarian": {"tested_on": "NCI/ADR-RES ovarian"}, "OVCAR-3 ovarian": {"tested_on": "OVCAR-3 ovarian"}, "OVCAR-4 ovarian": {"tested_on": "OVCAR-4 ovarian"}, "OVCAR-5 ovarian": {"tested_on": "OVCAR-5 ovarian"}, "OVCAR-8 ovarian": {"tested_on": "OVCAR-8 ovarian"}, "PC-3 prostate": {"tested_on": "PC-3 prostate"}, "RXF 393 renal": {"tested_on": "RXF 393 renal"}, "SF-268 CNS": {"tested_on": "SF-268 CNS"}, "SF-295 CNS": {"tested_on": "SF-295 CNS"}, "SF-539 CNS": {"tested_on": "SF-539 CNS"}, "SK-MEL-2 melanoma": {"tested_on": "SK-MEL-2 melanoma"}, "SK-MEL-28 melanoma": {"tested_on": "SK-MEL-28 melanoma"}, "SK-MEL-5 melanoma": {"tested_on": "SK-MEL-5 melanoma"}, "SK-OV-3 ovarian": {"tested_on": "SK-OV-3 ovarian"}, "SN12C renal": {"tested_on": "SN12C renal"}, "SNB-19 CNS": {"tested_on": "SNB-19 CNS"}, "SNB-75 CNS": {"tested_on": "SNB-75 CNS"}, "SR leukemia": {"tested_on": "SR leukemia"}, "SW-620 colon": {"tested_on": "SW-620 colon"}, "T-47D breast": {"tested_on": "T-47D breast"}, "TK-10 renal": {"tested_on": "TK-10 renal"}, "U251 CNS": {"tested_on": "U251 CNS"}, "UACC-257 melanoma": {"tested_on": "UACC-257 melanoma"}, "UACC-62 melanoma": {"tested_on": "UACC-62 melanoma"}, "UO-31 renal": {"tested_on": "UO-31 renal"}}, "note": "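96-well plates; 48 h exposure; 5 concentrations. Endpoints by linear interpolation between flanking doses. Not reached: highest tested concentration assigned. Abbreviation: GI50, concentration required for 50% inhibition of growth. At the TGI there is no net growth.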"}
{"smiles": "CN1CCN(Cc2ccc(C(=O)Nc3cccc(Nc4ccc5c(O)cccc5n4)c3)cc2C(F)(F)F)CC1", "values": [{"measurement": "TGI", "setting": "MOLT-4 leukemia", "value": 5.29, "unit": "µM"}, {"measurement": "GI50", "setting": "NCI-H226 lung", "value": 19.2, "unit": "µM"}, {"measurement": "TGI", "setting": "NCI-H226 lung", "value": 41.7, "unit": "µM"}, {"measurement": "GI50", "setting": "NCI-H23 lung", "value": 2.26, "unit": "µM"}, {"measurement": "TGI", "setting": "NCI-H23 lung", "value": 4.79, "unit": "µM"}, {"measurement": "GI50", "setting": "NCI-H522 lung", "value": 1.93, "unit": "µM"}, {"measurement": "TGI", "setting": "NCI-H522 lung", "value": 3.97, "unit": "µM"}, {"measurement": "GI50", "setting": "NCI/ADR-RES ovarian", "value": 3.45, "unit": "µM"}, {"measurement": "TGI", "setting": "NCI/ADR-RES ovarian", "value": 12, "unit": "µM"}, {"measurement": "GI50", "setting": "OVCAR-3 ovarian", "value": 3.1, "unit": "µM"}, {"measurement": "TGI", "setting": "OVCAR-3 ovarian", "value": 8, "unit": "µM"}, {"measurement": "GI50", "setting": "OVCAR-4 ovarian", "value": 7.39, "unit": "µM"}, {"measurement": "TGI", "setting": "OVCAR-4 ovarian", "value": 21, "unit": "µM"}, {"measurement": "GI50", "setting": "OVCAR-5 ovarian", "value": 3.24, "unit": "µM"}, {"measurement": "TGI", "setting": "OVCAR-5 ovarian", "value": 14.4, "unit": "µM"}, {"measurement": "GI50", "setting": "OVCAR-8 ovarian", "value": 3.56, "unit": "µM"}, {"measurement": "TGI", "setting": "OVCAR-8 ovarian", "value": 14, "unit": "µM"}, {"measurement": "GI50", "setting": "PC-3 prostate", "value": 2.53, "unit": "µM"}, {"measurement": "TGI", "setting": "PC-3 prostate", "value": 14.6, "unit": "µM"}, {"measurement": "GI50", "setting": "RXF 393 renal", "value": 1.66, "unit": "µM"}, {"measurement": "TGI", "setting": "RXF 393 renal", "value": 3.58, "unit": "µM"}, {"measurement": "GI50", "setting": "SF-268 CNS", "value": 3.81, "unit": "µM"}, {"measurement": "TGI", "setting": "SF-268 CNS", "value": 19, "unit": "µM"}, {"measurement": "GI50", "setting": "SF-295 CNS", "value": 1.65, "unit": "µM"}, {"measurement": "TGI", "setting": "SF-295 CNS", "value": 3.16, "unit": "µM"}, {"measurement": "GI50", "setting": "SF-539 CNS", "value": 1.67, "unit": "µM"}, {"measurement": "TGI", "setting": "SF-539 CNS", "value": 3.08, "unit": "µM"}, {"measurement": "GI50", "setting": "SK-MEL-2 melanoma", "value": 1.92, "unit": "µM"}, {"measurement": "TGI", "setting": "SK-MEL-2 melanoma", "value": 3.68, "unit": "µM"}, {"measurement": "GI50", "setting": "SK-MEL-28 melanoma", "value": 1.77, "unit": "µM"}, {"measurement": "TGI", "setting": "SK-MEL-28 melanoma", "value": 3.21, "unit": "µM"}, {"measurement": "GI50", "setting": "SK-MEL-5 melanoma", "value": 1.68, "unit": "µM"}, {"measurement": "TGI", "setting": "SK-MEL-5 melanoma", "value": 3.07, "unit": "µM"}, {"measurement": "GI50", "setting": "SK-OV-3 ovarian", "value": 14.4, "unit": "µM"}, {"measurement": "TGI", "setting": "SK-OV-3 ovarian", "value": 29.2, "unit": "µM"}, {"measurement": "GI50", "setting": "SN12C renal", "value": 2.34, "unit": "µM"}, {"measurement": "TGI", "setting": "SN12C renal", "value": 6.03, "unit": "µM"}, {"measurement": "GI50", "setting": "SNB-19 CNS", "value": 2.39, "unit": "µM"}, {"measurement": "TGI", "setting": "SNB-19 CNS", "value": 5.15, "unit": "µM"}, {"measurement": "GI50", "setting": "SNB-75 CNS", "value": 1.85, "unit": "µM"}, {"measurement": "TGI", "setting": "SNB-75 CNS", "value": 13.7, "unit": "µM"}, {"measurement": "GI50", "setting": "SR leukemia", "value": 4.39, "unit": "µM"}, {"measurement": "TGI", "setting": "SR leukemia", "value": "> 100", "unit": "µM"}, {"measurement": "GI50", "setting": "SW-620 colon", "value": 2.24, "unit": "µM"}, {"measurement": "TGI", "setting": "SW-620 colon", "value": 4.18, "unit": "µM"}, {"measurement": "GI50", "setting": "T-47D breast", "value": 10.7, "unit": "µM"}, {"measurement": "TGI", "setting": "T-47D breast", "value": 26.4, "unit": "µM"}, {"measurement": "GI50", "setting": "TK-10 renal", "value": 3.36, "unit": "µM"}, {"measurement": "TGI", "setting": "TK-10 renal", "value": 13.1, "unit": "µM"}, {"measurement": "GI50", "setting": "U251 CNS", "value": 2.38, "unit": "µM"}, {"measurement": "TGI", "setting": "U251 CNS", "value": 5.2, "unit": "µM"}, {"measurement": "GI50", "setting": "UACC-257 melanoma", "value": 1.92, "unit": "µM"}, {"measurement": "TGI", "setting": "UACC-257 melanoma", "value": 3.86, "unit": "µM"}, {"measurement": "GI50", "setting": "UACC-62 melanoma", "value": 1.73, "unit": "µM"}, {"measurement": "TGI", "setting": "UACC-62 melanoma", "value": 3.49, "unit": "µM"}, {"measurement": "GI50", "setting": "UO-31 renal", "value": 1.99, "unit": "µM"}, {"measurement": "TGI", "setting": "UO-31 renal", "value": 4.29, "unit": "µM"}]}
